Values of other authors, collected in US20100272800A1 (SANOVEL ILAC SANAYI VE TICARET ANONIM SIRKETI, priority 2009, published 2010).

SMILES: Cc1cc2c(s1)Nc1ccccc1N=C2N1CCN(C)CC1 [Olanzapine, 2-methyl-4-(4-methyl-1-piperazinyl)-10H-thieno[2,3-b][1,5] benzodiazepine]
- solubility in water: practically insoluble in water
